# Experimental data as given in PubChem BioAssay (NCI).
#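 Briefly, cells in 96-well plates were exposed to five compound concentrations for 48 h, and endpoints were estimated by linear interpolation. GI50 marks 50% less growth. At the TGI there is no net growth.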 Where a SMILES comes first, the peptide text is derived from it. [ ]: non-standard residue; d: D form.
# Legend:
# Test in all cases: NCI anticancer screen, dose series, 48 h
# DU-145 prostate = test system: DU-145 prostate
# HS 578T breast = test system: HS 578T breast
# LXFL 529 NSCLC = test system: LXFL 529 NSCLC
# SNB-78 CNS = test system: SNB-78 CNS
# XF 498 CNS = test system: XF 498 CNS
# DMS 273 small cell lung = test system: DMS 273 small cell lung
# RXF-631 renal = test system: RXF-631 renal
# MDA-N = test system: MDA-N
SMILES,GI50 (DU-145 prostate),TGI (DU-145 prostate),GI50 (HS 578T breast),TGI (HS 578T breast),TGI (LXFL 529 NSCLC),TGI (SNB-78 CNS),TGI (XF 498 CNS),TGI (DMS 273 small cell lung),TGI (RXF-631 renal),TGI (MDA-N)
CNc1nc(-c2ccc3c(N)n[nH]c3c2)cc(N2C[C@@H](C(=O)NC3CCCCC3)CC[C@H]2C)n1,5.91 µM,21.3 µM,1.06 µM,8.86 µM,,,,,,
COc1cc2c(=O)n(CC3CCCCC3)c3c4cc[nH]c4ncc3c2cc1OC,4.96 µM,19.6 µM,0.719 µM,4.09 µM,,,,,,
Cc1c(Cl)cccc1NC(=O)C(=O)c1c(O)c2ccc(O)cc2oc1=O,,,,,> 100 µM,> 100 µM,> 100 µM,> 100 µM,,
N#C/C(=C1\OC(N)=C(c2ccc(Cl)cc2)C1=O)c1ccc(Cl)cc1,,,,,24.3 µM,31.4 µM,,26.7 µM,,
CC(=O)/C(=C/N1CCN(C(=O)c2ccco2)C1=S)C(=O)c1ccccc1,11 µM,30.4 µM,,,,,,,,
N#Cc1cc2c(cc1Cl)SC(=Nc1ccccc1)N(S(=O)(=O)c1ccc(Br)s1)S2(=O)=O,20.6 µM,43.4 µM,24 µM,53.9 µM,,,,,,
CC1=C2C3OC(=O)C(C)C3C(O)C[C@@]2(C)C(=O)CC1 (stereo partly drawn),,,,,> 100 µM,> 100 µM,,> 100 µM,> 100 µM,
C/C(=N\Nc1n[nH]c(=S)n1N)c1c(O)cc(C)oc1=O,,,,,> 100 µM,> 100 µM,,,,
CC(=O)OC1=C(CC(C)(C)C)C(=O)c2ccccc2C1=O,,> 100 µM,,50.5 µM,,,,,,
CCSc1nc(N)c2cnn(CC)c2n1,5.75 µM,40.3 µM,4.19 µM,26 µM,,,,,,
CCCCCCCCc1cc(O)ccc1O,21.9 µM,52.5 µM,15.4 µM,53.5 µM,,,,,,
O=C1C(=Cc2ccc(F)cc2)C(=O)c2ccccc21,,,,,> 100 µM,,> 100 µM,> 100 µM,> 100 µM,
Cc1c2ccccc2c(C)n2c1nc1cc(Cl)c(Cl)cc12,> 100 µM,> 100 µM,> 100 µM,> 100 µM,,,,,,
NC(=O)c1nc(-c2ccc(Cl)c(Cl)c2)nc2ccccc12,,,,,> 100 µM,> 100 µM,> 100 µM,> 24.9 µM,,
CSCC[C@H](NC(=O)[C@@H](N)CC(N)=O)C(=O)N[C@@H](Cc1c[nH]c2ccccc12)C(=O)N[C@@H](CCC(N)=O)C(=O)N[C@@H](CCC(=O)O)C(=O)N[C@H](C(=O)NCC(=O)N[C@@H](CCCCN)C(=O)N[C@H](C)C(=O)O)C(C)C (H-NMWQEVGK[dA]-OH),,> 100 µM,,> 100 µM,,,,,,> 100 µM
CCOC(=O)CN1C(=O)C(=O)N(c2ccc(OC)c3ccccc23)C1=O,,> 100 µM,,,,,,,,> 100 µM
CN(C)CCOc1ccc2c(c1)C(=O)/C(=C\c1ncc([N+](=O)[O-])n1C)C2,0.234 µM,0.661 µM,1.87 µM,5.37 µM,,,,,,
CSc1nc2ccc(C)cc2cc1/C=C1/C=C(c2ccccc2)NC1=O,6.72 µM,96.1 µM,1.92 µM,7.46 µM,,,,,,

SMILES,GI50 (DU-145 prostate),TGI (DU-145 prostate),GI50 (HS 578T breast),TGI (HS 578T breast),TGI (LXFL 529 NSCLC),TGI (SNB-78 CNS),TGI (XF 498 CNS),TGI (DMS 273 small cell lung),TGI (RXF-631 renal),TGI (MDA-N)
COC(=O)c1cc(C)[nH]c2c(C)cc3nc4ccccc4c3c12,11.8 µM,24.7 µM,15 µM,> 100 µM,,,,,,
O=C(CCc1cc(-c2ccc(F)cc2)n[nH]1)N(Cc1ccccc1)Cc1ccccc1,,,,,> 100 µM,> 100 µM,> 100 µM,> 100 µM,,
Cc1cn2cc(-c3ccc4c(c3)CC(=O)N4)nc2s1,> 100 µM,> 100 µM,> 100 µM,> 100 µM,,,,,,
C[C@@H](C[C@H](CCO)c1ccccc1)c1ccc2ccccc2c1,1.47 µM,2.84 µM,1.69 µM,3.84 µM,,,,,,
C=CCO[C@H]1CC[C@@]2(C)C(CC[C@]3(C)C2CC=C2[C@@H]4[C@@H](C)C(C)CC[C@]4(C(=O)O)CCC23C)C1(C)C (stereo partly drawn),,,,,26.9 µM,35.4 µM,20.2 µM,,28.9 µM,
Oc1ccc(O)c(-n2cccn2)c1-n1cccn1,,,,,> 100 µM,> 100 µM,> 100 µM,> 100 µM,,
CN1CCN(c2nc3cc(F)ccc3n3cccc23)CC1,,,,97.9 µM,,,,,,> 100 µM
C=C(CN1CCN(c2ccc(F)c(Cl)c2)CC1)c1ccc(C(=O)Nc2ccccc2N)cc1,8.76 µM,40.4 µM,7.39 µM,> 100 µM,,,,,,
COC(=N)CCCl,,> 100 µM,,,,,,,,> 100 µM
COc1ccc2c(c1)[nH]c1c3ccc(OC)cc3oc(=O)c21,,> 100 µM,,> 100 µM,,,,,,> 100 µM
CCCCCC/C(CC(=O)CCC(=O)NCCc1ccccc1)=N\Nc1ccc([N+](=O)[O-])cc1[N+](=O)[O-],,,,,> 100 µM,> 100 µM,,> 100 µM,> 100 µM,
N#CC(C#N)C(c1ccccc1)c1ccccc1,,,,,> 100 µM,> 100 µM,,> 100 µM,> 100 µM,
O=C(N/N=C/c1ccc(N(CCCl)CCCl)cc1)c1ccc(C(=O)N/N=C/c2ccc(N(CCCl)CCCl)cc2)cc1,0.341 µM,> 100 µM,3.54 µM,> 100 µM,,,,,,
Cc1nc(-n2nc(-c3ccccc3)cc2-c2ccccc2)sc1C(=O)CC(=O)C(=O)Nc1ccc(O)cc1,,,,,> 100 µM,> 100 µM,,> 100 µM,> 100 µM,
C[C@H]1CC[C@@H]2[C@@H](C)[C@H]3[C@H](C[C@H]4[C@@H]5CC=C6C[C@@H](O)CC[C@]6(C)[C@H]5CC[C@]34C)N2C1,,> 100 µM,,97.9 µM,,,,,,> 100 µM
CN(C)C(=S)/N=c1\ss/c(=N\S(=O)(=O)c2ccccc2)n1C,,,,,> 100 µM,> 100 µM,> 100 µM,> 100 µM,,
CC1=C(SCCC(=O)OC(C[Se]C2=C(C)C(=O)c3ccccc3C2=O)C(=O)NC(C)(C)C)C(=O)c2ccccc2C1=O (stereo not drawn),1.49 µM,2.82 µM,1.07 µM,3.31 µM,,,,,,
COC(=O)C#CC(N)=O,,,,,> 100 µM,> 100 µM,,> 100 µM,> 100 µM,
